These results are taken from ChEMBL document CHEMBL1156479, “Reversine increases the plasticity of lineage-committed mammalian cells” (Proc Natl Acad Sci U S A, 2007).

The IC50 is the concentration that gives 50% inhibition.

A short description of assay [1]: Inhibition of ATPase activity of myosin 2 in mouse C2C12 myoblast assessed as release of inorganic phosphates.
The test system of another assay is C2C12. Put plainly: Inhibition of myotube formation in mouse C2C12 myoblasts at 20 nM. Particulars: C2C12, read-out: INH.
For assay [2], the target named is Dual specificity mitogen-activated protein kinase kinase 1 (Mus musculus, UniProt P31938). The assay can be described thus: Inhibition of MEK1 in mouse C2C12 by ERK2 phosphorylation assay.
Dual specificity mitogen-activated protein kinase kinase 1, sequence (P31938 whole entry): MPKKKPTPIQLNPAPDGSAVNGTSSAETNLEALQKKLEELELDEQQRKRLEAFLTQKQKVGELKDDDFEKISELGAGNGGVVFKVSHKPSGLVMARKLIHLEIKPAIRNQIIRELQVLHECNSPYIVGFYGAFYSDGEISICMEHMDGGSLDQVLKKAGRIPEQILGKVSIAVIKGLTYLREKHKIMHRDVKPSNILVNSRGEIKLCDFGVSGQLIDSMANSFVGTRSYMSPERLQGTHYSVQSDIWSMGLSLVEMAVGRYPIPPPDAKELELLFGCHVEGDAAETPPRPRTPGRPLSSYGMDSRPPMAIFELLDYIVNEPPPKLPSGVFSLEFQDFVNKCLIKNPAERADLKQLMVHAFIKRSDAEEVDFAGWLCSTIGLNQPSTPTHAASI

Molecules are shown by their SMILES.

In the case of `c1nc2c(NC3CCCCC3)nc(Nc3ccc(N4CCOCC4)cc3)nc2[nH]1` [REVERSINE], the IC50 in assay [1] was 10 nM; in assay [2], 8 nM. For the same compound, the inhibition at 0.02 µM in the assay with C2C12 was above 60%.
